This note sets out measurements from patent US11192850B2, “N-aryl oxamic acids” (Purdue Research Foundation, priority 2020, dated 2021).

What is called IC50 is the concentration that gives 50% inhibition. A higher IC50 goes with a need for much substance.

What all share (assay type): biochemical
One experiment has as its target PTP1B (Homo sapiens (Human), UniProt P18031). The experiment can be described thus: pNPP inhibition assay against PTP1B. To be noted: pNPP at Km of the PTP.
Another experiment addresses SHP2 (Homo sapiens (Human), UniProt Q06124). The experiment can be described thus: pNPP inhibition assay against SHP2. Particulars: pNPP at Km of the PTP.
For another experiment, the target named is mPTPB (Mycobacterium tuberculosis (strain ATCC 25618 / H37Rv), UniProt I6WXK4).
Another experiment deals with SHP1 (Homo sapiens (Human), UniProt P29350). The experiment can be described thus: pNPP inhibition assay against SHP1. To be noted: pNPP at Km of the PTP.
The mark [1] stands for this setting: pNPP assay, pH 7.0, 3.0 mM pNPP.

Read-outs that look alike come from different tables or passages of the source.

SHP1, sequence (P29350 244-515): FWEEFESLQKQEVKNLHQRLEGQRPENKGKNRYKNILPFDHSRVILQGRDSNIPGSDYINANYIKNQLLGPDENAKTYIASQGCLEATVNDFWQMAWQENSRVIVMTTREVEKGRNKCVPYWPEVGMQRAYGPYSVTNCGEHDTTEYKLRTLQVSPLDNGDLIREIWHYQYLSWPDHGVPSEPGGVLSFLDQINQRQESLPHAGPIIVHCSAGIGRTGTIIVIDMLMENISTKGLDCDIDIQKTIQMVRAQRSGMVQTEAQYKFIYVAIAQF
PTP1B, sequence (P18031 3-277): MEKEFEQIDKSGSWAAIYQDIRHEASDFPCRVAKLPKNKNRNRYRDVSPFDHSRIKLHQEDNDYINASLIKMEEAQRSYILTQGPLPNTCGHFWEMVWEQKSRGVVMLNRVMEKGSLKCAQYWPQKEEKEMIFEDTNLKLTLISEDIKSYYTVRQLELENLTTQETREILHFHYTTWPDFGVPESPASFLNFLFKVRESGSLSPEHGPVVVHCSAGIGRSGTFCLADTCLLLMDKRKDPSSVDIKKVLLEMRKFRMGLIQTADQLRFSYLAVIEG
SHP2, sequence (Q06124 247-517): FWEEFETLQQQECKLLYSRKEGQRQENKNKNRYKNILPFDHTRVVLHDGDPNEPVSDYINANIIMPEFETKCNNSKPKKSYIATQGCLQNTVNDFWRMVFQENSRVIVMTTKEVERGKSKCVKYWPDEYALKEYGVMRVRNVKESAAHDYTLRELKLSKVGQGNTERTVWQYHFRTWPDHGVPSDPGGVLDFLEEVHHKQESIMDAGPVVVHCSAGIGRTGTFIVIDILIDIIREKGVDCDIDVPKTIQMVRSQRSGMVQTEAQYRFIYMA
mPTPB, sequence (I6WXK4 whole entry, looked up): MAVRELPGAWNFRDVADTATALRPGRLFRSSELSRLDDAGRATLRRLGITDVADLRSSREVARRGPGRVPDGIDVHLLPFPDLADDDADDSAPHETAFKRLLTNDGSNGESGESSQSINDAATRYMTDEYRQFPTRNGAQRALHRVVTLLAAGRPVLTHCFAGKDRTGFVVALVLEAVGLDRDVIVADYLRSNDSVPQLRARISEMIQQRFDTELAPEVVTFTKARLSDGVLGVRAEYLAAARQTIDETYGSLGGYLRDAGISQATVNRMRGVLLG

In the case of `O=C(O)C(=O)Nc1ccccc1` [Compound 1, Oxanilic Acid], the IC50 at PTP1B and against SHP2 was above 100 µM throughout.

Take `C#Cc1ccc(NC(=O)C(=O)O)cc1` [Compound 2, 2-((4-ethynylphenyl)amino)-2-oxoacetic Acid]: the IC50 at PTP1B and on SHP2 was above 100 µM each time.

For `CC(C)(C)OC(=O)NCC#Cc1ccc(NC(=O)C(=O)O)cc1` [Compound 3, 2-((4-(3-((tert-butoxycarbonyl)amino)prop-1-yn-1-yl)phenyl)amino)-2-oxoacetic Acid], the results for the IC50 at PTP1B and on SHP2 were above 100 µM and 58 ± 2 µM, respectively.

`O=C(O)C(=O)Nc1ccc(C#Cc2ccccc2)cc1` [Compound 4, 2-oxo-2-((4-(phenylethynyl)phenyl)amino)acetic Acid]: the IC50 against mPTPB is 257 ± 8 nM; at PTP1B, above 100 µM; at SHP2 it was above 100 µM; at SHP1, above 100 µM. Also, the “fold more potency compared to the meta derivative 5” value on mPTPB worked out at 2 fold.

Turning to `COC(=O)c1ccc(C#Cc2ccc(NC(=O)C(=O)O)cc2)cc1` [Compound 4a, 2-((4-((4-(methoxycarbonyl)phenyl)ethynyl)phenyl)amino)-2-oxoacetic Acid], the IC50 is 23 ± 4 nM on mPTPB (setting [1]), above 100 µM on PTP1B, 52.6 ± 6.4 µM on SHP2 and above 100 µM against SHP1.

Consider `COC(=O)c1cc(C#Cc2ccc(NC(=O)C(=O)O)cc2)ccc1O` [Compound 4b, 2-((4-((4-hydroxy-3-(methoxycarbonyl)phenyl)ethynyl)phenyl)amino)-2-oxoacetic Acid], for which the IC50 against mPTPB (setting [1]) was 25 ± 3 nM; on PTP1B, above 50 µM; at SHP2 it was 27.3 ± 3.3 µM; at SHP1 it was above 50 µM.

For the compound `COC(=O)c1ccc(C#Cc2ccc(NC(=O)C(=O)O)cc2)cc1O` [Compound 4c, 2-((4-((3-hydroxy-4-(methoxycarbonyl)phenyl)ethynyl)phenyl)amino)-2-oxoacetic Acid], the IC50 against PTP1B, at SHP2 and at SHP1 was above 50 µM throughout.

`COC(=O)c1cc(C#Cc2ccc(NC(=O)C(=O)O)cc2)c(N(C)C)cc1O` [Compound 4d, 2-((4-((2-(dimethylamino)-4-hydroxy-5-(methoxycarbonyl)phenyl)ethynyl)phenyl)amino)-2-oxoacetic Acid]: the IC50 on mPTPB (setting [1]) was 30 ± 9 nM; against PTP1B it was above 50 µM; on SHP2, above 50 µM; against SHP1, above 50 µM.

As to `COC(=O)c1cc(C#Cc2cccc(NC(=O)C(=O)O)c2)c(N(C)C)cc1O` [Compound 4e, 2-((3-((2-(dimethylamino)-4-hydroxy-5-(methoxycarbonyl)phenyl)ethynyl)phenyl)amino)-2-oxoacetic Acid], the IC50 at PTP1B, against SHP2 and on SHP1 was above 50 µM in each case.

`CN(C)c1cc(O)c(C(=O)O)cc1C#Cc1ccc(NC(=O)C(=O)O)cc1` [Compound 4f, 5-((4-(carboxyformamido)phenyl)ethynyl)-4-(dimethylamino)-2-hydroxybenzoic Acid]: the IC50 on mPTPB (setting [1]) was 90 ± 8 nM; at PTP1B it was above 100 µM; against SHP2, 78.5 ± 4.2 µM; against SHP1, 59.3 ± 6 µM.

On to `O=C(O)C(=O)Nc1ccc(C#Cc2ccc(OC(F)(F)F)cc2)cc1` [Compound 4i, 2-oxo-2-((4-((4-(trifluoromethoxy)phenyl)ethynyl)phenyl)amino)acetic Acid], for which the IC50 at PTP1B, against SHP2 and at SHP1 was above 50 µM each time.

For `O=C(O)C(=O)Nc1ccc(C#Cc2cccc(C(F)(F)F)c2)cc1` [Compound 4j, 2-oxo-2-((4-((3-(trifluoromethyl)phenyl)ethynyl)phenyl)amino)acetic Acid], the values for the IC50 at PTP1B, against SHP2 and against SHP1 were 29.5 ± 4.1 µM, above 50 µM and above 50 µM, respectively.

Consider `NS(=O)(=O)c1ccc(C#Cc2ccc(NC(=O)C(=O)O)cc2)cc1` [Compound 4l, 2-oxo-2-((4-((4-sulfamoylphenyl)ethynyl)phenyl)amino)acetic Acid], for which the values for the IC50 against PTP1B, on SHP2 and against SHP1 were above 50 µM, above 50 µM and 29.9 ± 3.3 µM, respectively.

`O=C(O)C(=O)Nc1ccc(C#Cc2ccc(O)cc2)cc1` [Compound 4m, 2-((4-((4-hydroxyphenyl)ethynyl)phenyl)amino)-2-oxoacetic Acid]: the IC50 against PTP1B, against SHP2 and against SHP1 was above 50 µM in each case.

As to `O=C(O)C(=O)Nc1ccc(C#Cc2ccc(O)c(Br)c2)cc1` [Compound 4n, 2-((4-((3-bromo-4-hydroxyphenyl)ethynyl)phenyl)amino)-2-oxoacetic Acid], the values for the IC50 at PTP1B, at SHP2 and on SHP1 were above 50 µM, 44.5 ± 3.4 µM and above 50 µM, respectively.

As for `N#Cc1ccc(C#Cc2ccc(NC(=O)C(=O)O)cc2)cc1` [Compound 4o, 2-((4-((4-cyanophenyl)ethynyl)phenyl)amino)-2-oxoacetic Acid], the IC50 on PTP1B, against SHP2 and on SHP1 was above 50 µM in each case.

On to `O=C(O)C(=O)Nc1ccc(C#Cc2cc(C(F)(F)F)cc(C(F)(F)F)c2)cc1` [Compound 4p, 2-((4-((3,5-bis(trifluoromethyl)phenyl)ethynyl)phenyl)amino)-2-oxoacetic Acid], for which the IC50 is 60 ± 9 nM against mPTPB, above 50 µM against PTP1B, above 50 µM against SHP2 and above 50 µM against SHP1. Also, at mPTPB, the “difference in IC50 values with and without Triton X-100 and with preincubation” value is on record as “no significant difference”.

For `CC(C)(C)OC(=O)Nc1ccc(C#Cc2ccc(NC(=O)C(=O)O)cc2)cc1` [Compound 4s, 2-((4-((4-((tert-butoxycarbonyl)amino)phenyl)ethynyl)phenyl)amino)-2-oxoacetic Acid], the IC50 at PTP1B, on SHP2 and at SHP1 was above 50 µM in each case.

With `N#Cc1cc(C(F)(F)F)ccc1C#Cc1ccc(NC(=O)C(=O)O)cc1` [Compound 4w, 2-((4-((2-cyano-4-(trifluoromethyl)phenyl)ethynyl)phenyl)amino)-2-oxoacetic Acid], the IC50 at PTP1B came out at 27.4 ± 6.3 µM; against SHP2, 10.6 ± 2.5 µM; at SHP1, 13.7 ± 3.1 µM.

As to `O=C(O)C(=O)Nc1ccc(C#Cc2ccc(C(F)(F)F)cc2C(F)(F)F)cc1` [Compound 4x, 2-((4-((2,4-bis(trifluoromethyl)phenyl)ethynyl)phenyl)amino)-2-oxoacetic Acid], the IC50 at PTP1B, at SHP2 and against SHP1 was above 30 µM each time.

For `O=C(O)C(=O)Nc1cccc(C#Cc2ccccc2)c1` [Compound 5, 2-oxo-2-((3-(phenylethynyl)phenyl)amino)acetic Acid], the figures for the IC50 against PTP1B and against SHP2 were above 100 µM and 69 ± 4 µM, respectively.

As for `O=C(O)C(=O)Nc1ccc(-c2ccccc2)cc1` [Compound 6, 2-([1,1′-biphenyl]-4-ylamino)-2-oxoacetic Acid], the IC50 was determined as 62 ± 5 µM against PTP1B and 29 ± 8 µM at SHP2.

Take `O=C(O)C(=O)Nc1cccc(-c2ccccc2)c1` [Compound 7, 2-([1,1′-biphenyl]-3-ylamino)-2-oxoacetic Acid]: the IC50 on PTP1B and against SHP2 was above 100 µM each time.

Regarding `O=C(O)C(=O)Nc1cnc2ccccc2c1` [Compound 8, 2-oxo-2-(quinolin-3-ylamino)acetic Acid], the figures for the IC50 at mPTPB (setting [1]), against PTP1B and against SHP2 were above 10000 nM, above 100 µM and above 100 µM, respectively.

On to `O=C(O)C(=O)Nc1ccc(/C=C\c2ccccc2)cc1` [Compound 9, (Z)-2-oxo-2-((4-styrylphenyl)amino)acetic Acid], for which the IC50 is 770 ± 15 nM on mPTPB, above 30 µM on PTP1B and above 30 µM against SHP2. Also, on mPTPB, the “fold less potency compared to corresponding alkyne analogs 4 and 4k” value is 3 fold.

Regarding `O=C(O)C(=O)Nc1ccc(/C=C\c2ccc(C(F)(F)F)cc2)cc1` [Compound 10, (Z)-2-oxo-2-((4-(4-(trifluoromethyl)styryl)phenyl)amino)acetic Acid], the results for the concentration for half-maximal inhibition (IC50) against mPTPB, against PTP1B and at SHP2 were 684 ± 25 nM, above 30 µM and above 30 µM, respectively. On mPTPB, the “fold less potency compared to corresponding alkyne analogs 4 and 4k” value is 45 fold.

For the compound `O=C(O)C(=O)Nc1ccc(CCc2ccccc2)cc1` [Compound 11, 2-oxo-2-((4-phenethylphenyl)amino)acetic Acid], the IC50 was 1270 ± 200 nM on mPTPB, above 30 µM on PTP1B and above 30 µM on SHP2. For the same compound, the “fold less potency compared to corresponding alkyne analogs 4 and 4k” value at mPTPB was 5 fold.

For the compound `O=C(O)C(=O)Nc1ccc(CCc2ccc(C(F)(F)F)cc2)cc1` [Compound 12, 2-oxo-2-((4-(4-(trifluoromethyl)phenethyl)phenyl)amino)acetic Acid], the IC50 against mPTPB was 197 ± 13 nM; against PTP1B, above 30 µM; on SHP2, above 30 µM. Moreover, the “fold less potency compared to corresponding alkyne analogs 4 and 4k” value at mPTPB is recorded as 13 fold.
